Where two headings read alike, the source gives them in different places.

Assay [1] deals with T1, full-length beta-Catenin (Uniprot ID P35222) (Homo sapiens, UniProt P35222).
T1 construct: 10 nM full-length beta-Catenin (Uniprot ID P35222)
T1 sequence (P35222 1-781): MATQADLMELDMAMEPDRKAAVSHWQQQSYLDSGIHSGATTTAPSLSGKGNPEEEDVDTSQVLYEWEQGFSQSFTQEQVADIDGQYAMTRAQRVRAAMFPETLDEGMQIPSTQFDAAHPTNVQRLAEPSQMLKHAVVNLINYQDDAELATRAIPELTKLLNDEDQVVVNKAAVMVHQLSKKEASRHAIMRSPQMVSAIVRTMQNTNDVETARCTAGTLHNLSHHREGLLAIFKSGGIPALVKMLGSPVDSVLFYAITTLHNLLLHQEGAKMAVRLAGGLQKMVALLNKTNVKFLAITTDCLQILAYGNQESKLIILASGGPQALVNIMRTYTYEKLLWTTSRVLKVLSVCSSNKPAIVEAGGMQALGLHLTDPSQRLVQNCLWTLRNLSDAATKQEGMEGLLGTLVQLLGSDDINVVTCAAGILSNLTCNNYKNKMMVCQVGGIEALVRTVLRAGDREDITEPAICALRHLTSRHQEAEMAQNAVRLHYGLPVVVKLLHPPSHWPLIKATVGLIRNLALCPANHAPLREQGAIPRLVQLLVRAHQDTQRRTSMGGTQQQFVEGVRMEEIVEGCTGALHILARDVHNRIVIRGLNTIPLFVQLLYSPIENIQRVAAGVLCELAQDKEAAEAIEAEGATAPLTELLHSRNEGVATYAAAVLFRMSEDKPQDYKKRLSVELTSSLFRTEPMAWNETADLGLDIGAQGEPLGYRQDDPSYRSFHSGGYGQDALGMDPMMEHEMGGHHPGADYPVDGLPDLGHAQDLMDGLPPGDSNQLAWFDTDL
The experiment in a line: Fluorescence polarization IC50 (beta-catenin / 5FAM-TCF4 10-53 competition). Format: binding. Conditions: read-out: beta-Catenin FP IC50. Background: In fluorescence polarisation assays a small probe gives low polarisation when free and higher when bound to something large.

In assay [2] the test system is TCF/LEF luciferase Reporter in DLD1 cells. The experiment in a line: TCF reporter assay (DLD1 TCF/LEF luciferase reporter, Bright-Glo). The assay is classed as cell-based. An excerpt:
Those skilled in the art will appreciate that other suitable reagents may be utilized and various parameters may be adjusted.
DLD1 reporter cell line was generated by using TCF/LEF luciferase Reporter Lentivirus (BPS Bioscience Catalog #79787). Parental DLD1 cells (ATCC@ CCL-221) were transfected with the lentivirus and followed by 3-day puromycin selection. Single clone was selected for Reporter assay.
On Day 1, cultured cells in flasks that are no more than about 60-70% confluent were washed with PBS and typsinized in 3 mL/T75 until cells were free floating. Spin down cells for 5 minutes at 1100RPM. While cells spin, determine the number of plates (3 compounds per plate) needed. After spinning, aspirate the supernatant gently and add 10 mL media (RPMI+4% FBS), and re-suspend and mix the cells gently. Count the cells twice in the cell counter Countess and take average of both the counts, and determine how many cells are needed. After plating cells at 5000 cells/well, seal with aerseal film. 90 uL cells/well. Incubate at 37° C. overnight, tap gently to mix and don't stack plates.
On Day 2, compounds were added. Stock solution was 10 mM. Make the DMSO containing media by adding 36 uL DMSO to 10 mL of media. Make the dilution wells by transferring 100 uL DMSO+Media into rows B-F of a protein LoBind 96-well plate. Row G is empty. Add any extra DMSO+media to row H. Transfer 4 uL of stock solution to Row A. One compound per column. Add 196 uL media to Row A, no DMSO in the media. Concentration of Row A was 200 uM. Mix well and do a 6 pt, 1:2 serial dilution, mix ×10 per transfer and change tips before each transfer. Removed excess volume from final well (row F) and discard. Transfer 10 uL of the compound containing media to cells with a multichannel according to plate maps. Add 60 uL DMSO containing media to the DMSO wells. The edge wells were typically not used in the assay and could be ignored if needed or replaced with PBS, but there typically were liquids in the wells. Cover plates with breathable plate sealer and incubate overnight.
A 96-well plate may be utilized to prepare dilution series for up to 12 compounds, each with several concentrations (e.g., 200, 100, 50, 25, 12.5, 6.25 and 0 uM; can be utilized as 100× depending on final test concentrations).
0 uM is the DMSO control for the whole plate. Edge well filled with 90 uL cells+10 uL DMSO containing media.
On Day 3, luciferase levels were assessed using Bright-Glo (Promega). Equilibrate Bright-Glo to room temperature before addition. 7 mL of mixed Bright-Gbo per plate. Unused Bright-Glo could be store at −80° C. Reconstituted reagent can be stored for up to 1 month at −80° C., or after one freeze-thaw. When ready to read, remove plates from incubator and let sit at room temperature for 15 minutes. Typically stagger taking out plates if reading multiple plates before adding the Bright-Glo. Add 90 uL/well Bright-Glo and shake gently for 3 minutes. Read luminescence on GloMax immediately using ‘BrightGlo’ programs.
Cellular activity was assessed using CTG. Equilibrate CTG reagents to room temperature. Equilibrate plates to room temp, e.g. 15 min. Use same time length for all plates. Add CTG reagent, 25 uL if using undiluted, or 90 uL if diluted 1 to 4. Shake for 2 min to induce cell lysis. Allow plate to incubate at RT for 10 min to stabilize lumine sent signal. Read luminesence using program ‘CellTiter-Glo’. Use Prism to find the Absolute IC50 (AbsIC50=X[50]) of each compound.
On the technique in general: In a reporter assay the amount or activity of a reporter protein is the signal.

The target in assay [3] is T2, beta-catenin/TCF4 engagement (Homo sapiens, UniProt P35222).
T2 construct: expressed in transfected cells; host or cells: HEK293
T2 sequence (P35222 1-781): T1 sequence (P35222 1-781)
Nature of the assay: Nano-BRET target engagement assay (B-cat-Halo & TCF4-Luc in HEK293 cells). The assay is classed as cell-based. The settings on record: absolute IC50; read-out: NanoBRET Abs IC50.

[4] abbreviates: read-out: DLD1 4% Abs IC50, DLD1 reporter assay, 4%, absolute IC50.
[5] abbreviates: absolute IC50, read-out: DLD1 reporter assay Abs IC50.
The mark [6] stands for this setting: read-out: DLD1 4% Abs IC50, DLD1 reporter, 4%, absolute IC50.
The mark [7] stands for this setting: read-out: DLD1 4% Abs IC50, DLD1 reporter, 4%.

As a reminder, the IC50 is the concentration needed to halve the response being measured. On to `CC(=O)N1CCC[C@]12CC=CCCCC1(CCCC=CCCCOC(=O)N3CC[C@@](C(=O)N[C@@H](Cc4ccsc4)C(=O)N[C@@H](Cc4csc5ccccc45)C(=O)N[C@@H](CO)C(N)=O)(C3)NC(=O)[C@H](CC(C)C)NC(=O)[C@H](Cc3ccccc3)NC(=O)[C@H](C)NC(=O)[C@H](C)NC(=O)[C@H](Cc3ccccc3C(=O)O)NC(=O)[C@H](CC(=O)O)NC1=O)NC(=O)[C@H](CC(C)(C)C)NC(=O)[C@H](CC(=O)O)NC2=O` (single isomer, unassigned) [I-1667, Ac-PL3-Asp-Npg-B5-Asp-2COOHF-Ala-Ala-Phe-Leu-PyrS2-3Thi-BztA-Ser-NH2], for which the IC50 in assay [1] (fluorescence polarization) stood at 0.013 µM; in assay [2] (setting [4]) it was 1.3 µM; in assay [3], 5.6 µM.
For `CC(=O)N1CCC[C@]12CC=CCCCC1(CCCC=CCCCOC(=O)N3CC[C@@](C(=O)N[C@@H](Cc4ccsc4)C(=O)N[C@@H](Cc4csc5ccccc45)C(=O)N[C@H](CO)[C@@H](C)O)(C3)NC(=O)[C@H](CC(C)C)NC(=O)[C@H](Cc3ccccc3)NC(=O)[C@H](C)NC(=O)[C@H](C)NC(=O)[C@H](Cc3ccccc3C(=O)O)NC(=O)[C@H](CC(=O)O)NC1=O)NC(=O)[C@H](CC(C)(C)C)NC(=O)[C@H](CC(=O)O)NC2=O` (single isomer, unassigned) [I-1671, Ac-PL3-Asp-Npg-B5-Asp-2COOHF-Ala-Ala-Phe-Leu-PyrS2-3Thi-BztA-Thro1] the same measures were 0.028 µM, 1.7 µM and 8 µM.
Consider `CC(=O)N1CCC[C@]12CC=CCCCC1(CCCC=CCCCOC(=O)N3CC[C@@](C(=O)N[C@@H](Cc4ccsc4)C(=O)N[C@@H](Cc4csc5ccccc45)C(=O)N[C@@H](CCC(N)=O)C(=O)O)(C3)NC(=O)[C@H](CC(N)=O)NC(=O)[C@H](Cc3ccccc3)NC(=O)[C@H](C)NC(=O)[C@H](C)NC(=O)[C@H](CC(=O)O)NC(=O)[C@H](CC(=O)O)NC1=O)NC(=O)[C@H](CC(C)(C)C)NC(=O)[C@H](CC(=O)O)NC2=O` (stereo partly drawn) [I-1025, Ac-PL3-Asp-Npg-B5-Asp-Asp-Ala-Ala-Phe-Asn-PyrS2-3Thi-BztA-Gln-OH], for which the results for the half-maximal inhibitory concentration (IC50) in assay [1], in assay [2] (setting [5]) and in assay [3] were 0.005 µM, above 20 µM and 23.6 µM, respectively.
As to `CC(=O)N1CCC[C@]12CC=CCCCC1(CCCC=CCCCOC(=O)N3CC[C@@](C(=O)N[C@@H](Cc4ccsc4)C(=O)N[C@@H](Cc4csc5ccccc45)C(=O)N[C@@H](CCC(N)=O)C(=O)O)(C3)NC(=O)[C@H](CC(N)=O)NC(=O)[C@H](Cc3ccccc3)NC(=O)[C@H](C)NC(=O)[C@H](C)NC(=O)[C@H](CN(CC(=O)O)CC(F)(F)F)NC(=O)[C@H](CC(=O)O)NC1=O)NC(=O)[C@H](CC(C)(C)C)NC(=O)[C@H](CC(=O)O)NC2=O` (stereo partly drawn) [I-1026, Ac-PL3-Asp-Npg-B5-Asp-TfeGA-Ala-Ala-Phe-Asn-PyrS2-3Thi-BztA-Gln-OH], the IC50 in assay [1] is 0.005 µM; in assay [2] (setting [5]), above 20 µM; in assay [3], 16.7 µM.
In the case of `CC(=O)N1CCC[C@]12CC=CCCCC1(CCCC=CCCCOC(=O)N3CC[C@@](C(=O)N[C@@H](Cc4ccccc4C(F)(F)F)C(=O)N[C@@H](Cc4csc5ccccc45)C(=O)N[C@@H](CCC(N)=O)C(N)=O)(C3)NC(=O)[C@H](CC(C)C)NC(=O)[C@H](Cc3ccccc3)NC(=O)[C@H](C)NC(=O)[C@H](C)NC(=O)[C@H](Cc3cccc(C(=O)O)c3)NC(=O)[C@H](CC(=O)O)NC1=O)NC(=O)[C@H](CC(C)(C)C)NC(=O)[C@H](CC(=O)O)NC2=O` (stereo partly drawn) [I-1466, Ac-PL3-Asp-Npg-B5-Asp-3COOHF-Ala-Ala-Phe-Leu-PyrS2-2F3MeF-BztA-Gln-NH2], the IC50 in assay [1] amounted to 0.01 µM; in assay [2] (setting [6]), 0.7 µM.
Take `CC(=O)N1CCC[C@]12CC=CCCCC1(CCCC=CCCCOC(=O)N3CC[C@@](C(=O)N[C@@H](Cc4ccsc4)C(=O)N[C@@H](Cc4csc5ccccc45)C(=O)N[C@@H](CCCNC(=N)N)C(N)=O)(C3)NC(=O)[C@H](CC(N)=O)NC(=O)[C@H](Cc3ccccc3)NC(=O)[C@H](C)NC(=O)C(C)(C)NC(=O)[C@H]([C@@H](C)O)NC(=O)[C@H](CC(N)=O)NC1=O)NC(=O)[C@H](CC(C)(C)C)NC(=O)[C@H](CC(=O)O)NC2=O` (stereo partly drawn) [I-2413, Ac-PL3-Asp-Npg-B5-Asn-Thr-Aib-Ala-Phe-Asn-PyrS2-3Thi-BztA-Arg-NH2]: the IC50 in assay [1] (fluorescence polarization) was 0.133 µM; in assay [2] (setting [6]), above 20 µM.
For the compound `CC(C)C[C@H](NC(=O)[C@]12CCN(C1)C(=O)OCCCCCCCCC1(CCCCCCc3ccccc3C(=O)N3CCC[C@@]3(C)C(=O)N[C@@H](CC(=O)O)C(=O)N1)C(=O)N[C@@H](C)C(=O)N[C@@H](CC(=O)O)C(=O)N[C@@H](CC(=O)O)C(=O)N[C@@H](C)C(=O)N[C@@H](C)C(=O)N[C@@H](Cc1ccccc1)C(=O)N2)C(=O)N[C@@H](Cc1ccsc1)C(=O)N[C@@H](Cc1csc2ccccc12)C(=O)N[C@@H](CCC(N)=O)C(N)=O` (stereo partly drawn) [I-2606, BzAm2Allyl-MePro-Asp-B5-Ala-Asp-Asp-Ala-Ala-Phe-PyrS2-Leu-3Thi-BztA-Gln-NH2], the half-inhibitory concentration (IC50) was 0.734 µM in assay [1] (fluorescence polarization) and above 20 µM in assay [2] (setting [7]).
Taken in the same sequence, the figures for `CC(C)C[C@H](NC(=O)[C@]12CCN(C1)C(=O)OCCCCCCCCC1(CCCCCCc3ccccc3C(=O)N3CCC[C@@]3(C)C(=O)N[C@@H](CC(=O)O)C(=O)N1)C(=O)N[C@@H](C)C(=O)N[C@@H](CC(=O)O)C(=O)N[C@@H](Cc1cccc(C(=O)O)c1)C(=O)N[C@@H](C)C(=O)N[C@@H](C)C(=O)N[C@@H](Cc1ccccc1)C(=O)N2)C(=O)N[C@@H](Cc1ccsc1)C(=O)N[C@@H](Cc1csc2ccccc12)C(=O)N[C@@H](CCC(N)=O)C(N)=O` (stereo partly drawn) [I-2607, BzAm2Allyl-MePro-Asp-B5-Ala-Asp-3COOHF-Ala-Ala-Phe-PyrS2-Leu-3Thi-BztA-Gln-NH2] were 0.904 µM and above 20 µM.

(Values after patent US20240116985A1, “STAPLED PEPTIDES AND METHODS THEREOF” (priority 2020, published 2024).)
